This assay relates to MLH1 variant p.Arg385Pro and PMS2. Kind of assay: MMR complementation assay with peptide, MLH1 p.Arg385Pro variant. Type of assay: biochemical, human. As to conditions: ConMot-32 at 0, 7.5, 18 and 75 μM. On the procedure: Mismatch repair activity was assessed as described in detail before ([79],[81]) (Supplementary Figure S3). […] Mismatched DNA plasmid substrate (Supplementary Figure S3) prepared according to previously published procedures ([81–83]) was added, and reactions in a final volume of 25 μl were incubated at 37°C for 15 min. Repair efficiency was scored by purifying the mismatched DNA plasmid from the reaction and assessing the fraction of homoduplex sequence by restriction digestion of the mismatched site using EcoRV. The substrate was additionally linearized with AseI.
For complementation assays with peptide, the indicated peptide(s) were used at stock concentrations of 50 or 500 μM in HEPES–KOH 20 mM pH 7.6 and supplemented to the MMR reactions.
In an identical way, we analyzed the effects of the ConMot peptide on MMR activity of the defective human MLH1 missense variant p.Arg385Pro (Figure 5).
Figure 5. […] Several MMR assays were performed; a representative agarose gel is shown (top), and average MMR activity values and standard deviations of three independent experiments were calculated (bottom). […]
In parallel, the single- strand nick is ligated. […] 40- 80% absolute repair, determined as signal intensities of the repair bands divided by sum of signal intensities of all plasmid bands, are optimally achieved and allow accurate determination of MMR activity of variants. […]

Entries after “also recorded” stand apart in the source; their conditions may differ. No end group written: not given here.

Turning to “SGSSDKVYAHQMVRTDSREQKLDAFLQPLSKP [ConMot-32]”, the “peptide concentrations required for restoration of p.Arg385Pro variant, compared with ConMot-deletion variant” value was “identical peptide concentrations as with the ConMot-deletion variant”. Further, the “restoration of DNA mismatch repair activity of the p.Arg385Pro variant” value (37°C, 15 min, average of three independent experiments, listed as ConMot peptide) is on record as “Restoration of MMR activity was again observed; also recorded: could be overcome”.

The record behind these values is paper PMC10325900, “A conserved motif in the disordered linker of human MLH1 is vital for DNA mismatch repair and its function is diminished by a cancer family mutation” (Nucleic Acids Research, 2023).
